Test results taken from US20240158370A1, “CK1 alpha AND DUAL CK1 alpha / GSPT1 DEGRADING COMPOUNDS” (Innovo Therapeutics, Inc., priority 2022, published 2024).

How the values were obtained:
GSPT1 = GSPT1 (Homo sapiens, UniProt P15170+Q96SW2); assay: HiBiT degradation assay, GSPT1, Procedure A; type: cell-based; design: HiBit-GSPT1 KI HEK293(LgBit) Cells; host or cells: HEK293(LgBit) knock-in cells
Procedure, shortened: (§1)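 DC50 and Ymin (% remaining) were derived by four-parameter fitting of luminescence data. The data come from a six-hour, 37° C compound exposure of cells in DMEM/10% FBS over a ten-point range, 10 μM to 0.005 μM, followed by Nano-Glo HiBiT lytic detection.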

CK1α = biological target: T1, CK1α (Homo sapiens, UniProt P48729+Q96SW2); assay: HiBiT degradation assay, CK1α, Procedure A; type: cell-based
T1 construct: CSNK1A1-HiBit KI HEK293(LgBit) Cells; host or cells: HEK293(LgBit) knock-in cells
T1 sequence (P48729 whole entry): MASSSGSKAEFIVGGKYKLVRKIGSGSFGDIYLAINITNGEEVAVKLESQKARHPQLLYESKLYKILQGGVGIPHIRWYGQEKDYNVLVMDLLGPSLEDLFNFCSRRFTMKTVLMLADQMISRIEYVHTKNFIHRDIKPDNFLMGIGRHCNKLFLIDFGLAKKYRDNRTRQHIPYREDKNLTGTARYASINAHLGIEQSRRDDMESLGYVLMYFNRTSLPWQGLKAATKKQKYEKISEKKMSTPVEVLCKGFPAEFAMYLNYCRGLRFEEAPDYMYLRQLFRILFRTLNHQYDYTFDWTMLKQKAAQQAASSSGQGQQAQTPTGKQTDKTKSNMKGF
T1 sequence (Q96SW2 whole entry): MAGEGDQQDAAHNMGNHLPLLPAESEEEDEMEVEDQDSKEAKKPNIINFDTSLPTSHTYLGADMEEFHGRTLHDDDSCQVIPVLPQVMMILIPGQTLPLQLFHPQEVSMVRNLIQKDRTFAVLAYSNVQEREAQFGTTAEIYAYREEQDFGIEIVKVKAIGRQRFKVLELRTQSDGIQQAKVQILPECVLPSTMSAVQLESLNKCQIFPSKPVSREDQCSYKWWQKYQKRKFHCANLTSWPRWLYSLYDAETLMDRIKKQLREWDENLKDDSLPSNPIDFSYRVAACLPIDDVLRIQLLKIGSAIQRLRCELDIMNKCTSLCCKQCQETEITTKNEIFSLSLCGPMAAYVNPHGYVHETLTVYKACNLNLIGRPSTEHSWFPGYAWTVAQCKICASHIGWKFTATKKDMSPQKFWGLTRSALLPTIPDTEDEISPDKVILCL
T1 sequence (Q16531 whole entry partner): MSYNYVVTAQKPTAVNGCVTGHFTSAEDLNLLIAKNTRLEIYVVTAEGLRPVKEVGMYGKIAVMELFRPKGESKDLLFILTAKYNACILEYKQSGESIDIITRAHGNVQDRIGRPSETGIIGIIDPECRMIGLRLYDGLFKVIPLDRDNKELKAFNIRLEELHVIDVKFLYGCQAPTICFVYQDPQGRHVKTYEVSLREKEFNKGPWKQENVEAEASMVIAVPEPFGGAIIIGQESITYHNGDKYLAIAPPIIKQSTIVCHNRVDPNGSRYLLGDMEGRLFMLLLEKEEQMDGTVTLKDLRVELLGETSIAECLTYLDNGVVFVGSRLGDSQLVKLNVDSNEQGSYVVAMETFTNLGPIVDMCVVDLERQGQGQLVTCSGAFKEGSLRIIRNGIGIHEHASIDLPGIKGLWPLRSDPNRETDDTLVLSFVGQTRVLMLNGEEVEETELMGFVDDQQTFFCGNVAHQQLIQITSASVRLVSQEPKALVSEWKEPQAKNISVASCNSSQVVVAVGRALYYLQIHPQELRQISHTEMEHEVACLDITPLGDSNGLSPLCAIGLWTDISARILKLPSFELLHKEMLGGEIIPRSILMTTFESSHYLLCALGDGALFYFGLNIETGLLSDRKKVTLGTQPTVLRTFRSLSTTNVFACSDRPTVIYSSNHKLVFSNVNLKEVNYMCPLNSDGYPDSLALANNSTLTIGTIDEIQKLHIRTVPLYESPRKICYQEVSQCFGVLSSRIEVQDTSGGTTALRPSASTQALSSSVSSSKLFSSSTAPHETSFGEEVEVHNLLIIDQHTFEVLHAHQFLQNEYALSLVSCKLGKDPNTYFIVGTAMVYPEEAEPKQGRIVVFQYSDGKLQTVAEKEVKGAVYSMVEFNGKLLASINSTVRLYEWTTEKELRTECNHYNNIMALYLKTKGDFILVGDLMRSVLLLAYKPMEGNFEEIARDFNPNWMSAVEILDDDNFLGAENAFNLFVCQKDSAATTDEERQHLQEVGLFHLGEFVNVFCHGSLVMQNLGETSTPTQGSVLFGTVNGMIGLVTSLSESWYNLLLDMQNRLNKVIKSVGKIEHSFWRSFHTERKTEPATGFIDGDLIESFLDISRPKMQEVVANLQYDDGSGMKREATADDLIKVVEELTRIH
Procedure, shortened: as §1

Chain of GSPT1 (P15170 whole entry): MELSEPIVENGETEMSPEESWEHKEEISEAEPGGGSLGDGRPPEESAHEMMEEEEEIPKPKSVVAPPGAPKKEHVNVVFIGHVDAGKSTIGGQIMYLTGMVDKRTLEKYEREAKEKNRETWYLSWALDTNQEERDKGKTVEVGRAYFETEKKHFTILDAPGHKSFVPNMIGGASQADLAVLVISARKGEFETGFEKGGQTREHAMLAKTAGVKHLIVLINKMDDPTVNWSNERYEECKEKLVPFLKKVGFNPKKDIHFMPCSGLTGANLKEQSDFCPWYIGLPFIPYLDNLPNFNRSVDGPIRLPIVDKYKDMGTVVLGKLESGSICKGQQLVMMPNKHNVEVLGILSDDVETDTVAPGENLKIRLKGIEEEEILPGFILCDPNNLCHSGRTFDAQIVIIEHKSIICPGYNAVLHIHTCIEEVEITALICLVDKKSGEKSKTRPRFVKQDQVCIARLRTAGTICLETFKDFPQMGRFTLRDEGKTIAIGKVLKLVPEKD
Chain of GSPT1 (Q96SW2 whole entry): as the sequence (Q96SW2 whole entry) above
Chain of GSPT1 (Q16531 whole entry partner): as the sequence (Q16531 whole entry partner) above

| SMILES | DC50 (GSPT1; six hours) [nM] | GSPT1 Ymin (GSPT1; six hours) | CK1α Ymin (CK1α; six hours) | DC50 (CK1α; six hours) [nM] | DC50 (GSPT1; six hours incubation) [nM] | GSPT1 Ymin (GSPT1; six hours incubation) | CK1α Ymin (CK1α; six hours incubation) | DC50 (CK1α; six hours incubation) [nM] |
| --- | --- | --- | --- | --- | --- | --- | --- | --- |
| Cn1ncc(-c2ccc3c(c2)CN(C2CCC(=O)NC2=O)C3=O)c1-c1ccc(F)cc1Cl (stereo not shown) [Example 88] | – | – | – | – | ≥ 25 | F (F = >75-100% remaining) | E (E = >25-75% remaining) | < 25 |
| Cn1cnc(-c2ccc3c(c2)CN(C2CCC(=O)NC2=O)C3=O)c1-c1ccc(C#N)cc1 (stereo not shown) [Example 165] | – | – | – | – | ≥ 25 | F (F = >75-100% remaining) | D (D = >10- 25% remaining) | < 25 |
| COc1ccc(-c2c(-c3ccc4c(c3)CN(C3CCC(=O)NC3=O)C4=O)cnn2C(F)F)cc1F (stereo not shown) [Example 417, 3-(5-(1-(difluoromethyl)-5-(3-fluoro-4-methoxyphenyl)-1H-pyrazol-4-yl)-1-oxoisoindolin-2-yl)piperidine-2,6-dione] | ≥ 25 | F (F = >75-100% remaining) | D (D = >10- 25% remaining) | < 25 | – | – | – | – |
| COc1ccc(-c2c(-c3ccc4c(c3)CN(C3CCC(=O)NC3=O)C4=O)ncn2C)c(C)c1 (stereo not shown) [Example 188] | – | – | – | – | < 25 | E (E = >25-75% remaining) | C (C = 0-10% remaining) | < 25 |
| COc1ccc(-c2nn(C(F)F)cc2-c2ccc3c(c2)CN(C2CCC(=O)NC2=O)C3=O)cc1F (stereo not shown) [Example 341, 3-(5-(1-(difluoromethyl)-3-(3-fluoro-4-methoxyphenyl)-1H-pyrazol-4-yl)-1-oxoisoindolin-2-yl)piperidine-2,6-dione] | – | – | – | – | ≥ 25 | F (F = >75-100% remaining) | E (E = >25-75% remaining) | < 25 |
| Cn1ncc(-c2ccc3c(c2)CN(C2CCC(=O)NC2=O)C3=O)c1-c1ccc2cccnc2c1 (stereo not shown) [Example 385] | ≥ 25 | F (F = >75-100% remaining) | E (E = >25-75% remaining) | < 25 | – | – | – | – |
| Cn1ncc(-c2ccc3c(c2)CN(C2CCC(=O)NC2=O)C3=O)c1-c1ccc(CO)cc1 (stereo not shown) [Example 156] | – | – | – | – | ≥ 25 | F (F = >75-100% remaining) | D (D = >10- 25% remaining) | ≥ 25 |
| O=C1CCC(N2Cc3cc(-c4c[nH]nc4-c4ccncc4)ccc3C2=O)C(=O)N1 (stereo not shown) [Example 38, 3-(1-Oxo-5-(3-(pyridin-4-yl)-1H-pyrazol-4-yl)isoindolin-2-yl)piperidine-2,6-dione] | – | – | – | – | ≥ 25 | F (F = >75-100% remaining) | E (E = >25-75% remaining) | ≥ 25 |
| COc1cc(F)ccc1-c1c(-c2ccc3c(c2)CN(C2CCC(=O)NC2=O)C3=O)ncn1C (stereo not shown) [Example 192] | – | – | – | – | < 25 | E (E = >25-75% remaining) | E (E = >25-75% remaining) | < 25 |

Now from value to compound:

| DC50 (GSPT1; six hours) [nM] | GSPT1 Ymin (GSPT1; six hours) | CK1α Ymin (CK1α; six hours) | DC50 (CK1α; six hours) [nM] | DC50 (GSPT1; six hours incubation) [nM] | GSPT1 Ymin (GSPT1; six hours incubation) | CK1α Ymin (CK1α; six hours incubation) | DC50 (CK1α; six hours incubation) [nM] | SMILES |
| --- | --- | --- | --- | --- | --- | --- | --- | --- |
| ≥ 25 | E (E = >25-75% remaining) | C (C = 0-10% remaining) | < 25 | – | – | – | – | Cn1cnc(-c2ccc3c(c2)CN(C2CCC(=O)NC2=O)C3=O)c1-c1ccc2c(c1)CCCO2 (stereo not shown) [Example 514] |
| < 25 | F (F = >75-100% remaining) | D (D = >10- 25% remaining) | < 25 | – | – | – | – | Cn1cc(-c2ccc3c(c2)CN(C2CCC(=O)NC2=O)C3=O)nc1-c1ccc(C#N)nc1 (stereo not shown) [Example 572] |
| ≥ 25 | F (F = >75-100% remaining) | E (E = >25-75% remaining) | ≥ 25 | – | – | – | – | Cn1cnc(-c2ccc3c(c2)CN(C2CCC(=O)NC2=O)C3=O)c1-c1cncnc1 (stereo not shown) [Example 520] |
| ≥ 25 | F (F = >75-100% remaining) | E (E = >25-75% remaining) | ≥ 25 | – | – | – | – | O=C1CCC(N2Cc3cc(-n4cnc(-c5ccccc5)c4)ccc3C2=O)C(=O)N1 (stereo not shown) [Example 552, 3-(1-oxo-5-(4-phenyl-1H-imidazol-1-yl)isoindolin-2-yl)piperidine-2,6-dione] |
